{
  "source": "patent US5948887A",
  "about": "“Polypeptides that include conformation-constraining groups which flank a protein--protein interaction site” (Virginia Commonwealth University, priority 1997, dated 1999)",
  "origin": "cited, not measured here",
  "tested_on": "receptors of sweet tasting papillae",
  "conditions": "comparison value",
  "note": "Where a SMILES comes first, the peptide text is derived from it.",
  "data": [
    {"molecule": "COC(=O)[C@H](Cc1ccccc1)NC(=O)[C@@H](N)CC(=O)O", "note": "[aspartame] (H-Asp-Phe-OMe)", "values": [
      {"measurement": "times sweeter than sugar", "result": 160, "unit": "times"}
    ]}
  ]
}
